In brackets after ≈: the same amount, converted by molar mass.
Key:
Type in all cases: cell-based
Candida = experiment: In vitro MIC, NCCLS M27A, Candida species; set-up: MIC, Candida albicans 1.549 / MIC, Candida albicans Y-01-19 / MIC, C. krusei 766-1 / MIC, C. krusei Q. C / MIC, Candida tropicalis ATCC / MIC, C. glabrata 90030: unit not given beside the values; MIC, Candida albicans A 26 / MIC, C. parapsilosis Q. C.: unit not given here; conditions: for MIC, C. glabrata 90030: C. glabrata strain 90030; for MIC, C. krusei 766-1: C. krusei strain 766-1; for MIC, C. krusei Q. C: C. krusei strain Q. C; for MIC, C. parapsilosis Q. C.: C. parapsilosis strain Q. C.; for MIC, Candida albicans 1.549: Candida albicans strain 1.549; for MIC, Candida albicans A 26: Candida albicans strain A 26; for MIC, Candida albicans Y-01-19: Candida albicans strain Y-01-19
Cryptococcus neoformans = experiment: In vitro MIC, NCCLS M27A, Cryptococcus neoformans; set-up: MIC, C. neoformans I: unit not given beside the values; MIC, C. neoformans M 106: unit not given here; conditions: for MIC, C. neoformans I: C. neoformans strain I; for MIC, C. neoformans M 106: C. neoformans strain M 106
A. fumigatus s 1008 = experiment: In vitro MIC, NCCLS M38P broth method (RPMI 1640/MOPS pH7), Aspergillus fumigatus; conditions: A. fumigatus strain 1008
Histoplasma capsulatum = tested on: Histoplasma capsulatum

Compound | MIC, C. glabrata 90030 (Candida) | MIC, C. krusei 766-1 (Candida) | MIC, C. krusei Q. C (Candida) | MIC, C. parapsilosis Q. C. (Candida) | MIC, Candida albicans 1.549 (Candida) | MIC, Candida albicans A 26 (Candida) | MIC, Candida albicans Y-01-19 (Candida) | MIC, Candida tropicalis ATCC (Candida) | MIC, C. neoformans I (Cryptococcus neoformans) | MIC, C. neoformans M 106 (Cryptococcus neoformans) | MIC, A. fumigatus 1008 (A. fumigatus s 1008) | MIC, H. capsulatum (Histoplasma capsulatum) [µg/mL]
C[C@@H](n1ncn(-c2ccc(N3CCN(c4ccc(F)c(Cl)c4)CC3)cc2)c1=O)[C@](O)(Cn1cncn1)c1ccc(F)cc1F [Compound 15, 2-{[1R2R/1S2S]-2-(2,4-Difluorophenyl)-2-hydroxy-1-methyl-3-(1H-1,2,4-triazol-1-yl)propyl}-4-{4-[4-(3-chloro-4-fluorophenyl)-1-piperazinyl]phenyl}-3-(2H,4H)-1,2,4-triazolone] | 0.50 | 0.50 | 0.25 | <0.03 | 1.00 | <0.03 | 0.25 | <0.03 | <0.03 | <0.03 | 0.50 | 0.12 (≈ 0.192 µM)
C[C@@H](n1ncn(-c2ccc(N3CCN(c4ccccc4)CC3)cc2)c1=O)[C@@](O)(Cn1cncn1)c1ccc(F)cc1F [Compound 6, 2-{[1R2S/1S2R]-2-(2,4-Difluorophenyl)-2-hydroxy-1-methyl-3-(1H-1,2,4-triazol-1-yl)propyl}-4-[4-(1-phenylpiperazinyl)phenyl]-3-(2H,4H)-1,2,4-triazolone] | >16 | >16 | 16.0 | 0.125 | 2.00 | <0.03 | 8.00 | <0.03 | 0.25 | 2.00 | >16 | 0.12 (≈ 0.21 µM)
Cc1nn([C@H](C)[C@@](O)(Cn2cncn2)c2ccc(F)cc2F)c(=O)n1-c1ccc(N2CCN(c3cc(Cl)cc(Cl)c3)CC2)cc1 [Compound 30, 2-{[1R2S/1S2R]-2-(2,4-Difluorophenyl)-2-hydroxy-1-methyl-3-(1H-1,2,4-triazol-1-yl)propyl}-4-{4-[4-(3,5-dichlorophenyl)-1-piperazinyl]phenyl}-3-(2H,4H)-5-methyl-1,2,4-triazolone] | 1.00 | 8.00 | 1.00 | 0.12 | 0.50 | <0.03 | 1.00 | <0.03 | 0.12 | 0.25 | >16 | 0.5 (≈ 0.763 µM)
Cc1ccc(N2CCN(c3ccc(-n4cnn([C@H](C)[C@](O)(Cn5cncn5)c5ccc(F)cc5F)c4=O)cc3)CC2)cc1C [Compound 23, 2-{[1R2R/1S2S]-2-(2,4-Difluorophenyl)-2-hydroxy-1-methyl-3-(1H-1,2,4-triazol-1-yl)propyl}-4-{4-[4-(3,4-dimethylphenyl)-1-piperazinyl]phenyl}-3-(2H,4H)-1,2,4-triazolone] | 0.50 | 0.50 | 0.25 | <0.03 | 0.25 | <0.03 | 0.50 | <0.03 | <0.03 | <0.03 | 1.00 | 0.06 (≈ 0.0999 µM)
C[C@@H](n1ncn(-c2ccc(N3CCN(c4ccc(Cl)c(Cl)c4)CC3)cc2)c1=O)[C@](O)(Cn1cncn1)c1ccc(F)cc1F [Compound 7, 2-{[1R2R/1S2S]-2-(2,4-Difluorophenyl)-2-hydroxy-1-methyl-3-(1H-1,2,4-triazol-1-yl)propyl}-4-{4-[4-(3,4-dichlorophenyl)-1-piperzinyl]phenyl}-3-(2H,4H)-1,2,4-triazolone] | 0.12 | 0.25 | 0.12 | <0.03 | 0.25 | <0.03 | 0.12 | <0.03 | <0.03 | <0.03 | 0.25 | 0.12 (≈ 0.187 µM)
Cc1ccc(N2CCN(c3ccc(-n4cnn([C@H](C)[C@](O)(Cn5cncn5)c5ccc(F)cc5F)c4=O)cc3)CC2)c(C)c1 [Compound 19, 2-{[1R2R/1S2S]-2-(2,4-Difluorophenyl)-2-hydroxy-1-methyl-3-(1H-1,2,4-triazol-1-yl)propyl}-4-{4-[4-(2,4-dimethylphenyl)-1-piperazinyl]phenyl}-3-(2H,4H)-1,2,4-triazolone] | >16 | >16 | 0.50 | 0.06 | 1.00 | <0.03 | 1.00 | <0.03 | <0.03 | <0.03 | >16 | 0.5 (≈ 0.832 µM)
C[C@@H](n1ncn(-c2ccc(N3CCN(c4ccccc4F)CC3)cc2)c1=O)[C@](O)(Cn1cncn1)c1ccc(F)cc1F [Compound 25, 2-{[1R2R/1S2S]-2-(2,4-Difluorophenyl)-2-hydroxy-1-methyl-3-(1H-1,2,4-triazol-1-yl)propyl}-4-{4-[4-(2-fluorophenyl)-1-piperazinyl]phenyl}-3-(2H,4H)-1,2,4-triazolone] | 0.12 | 0.12 | 0.06 | <0.03 | 0.06 | <0.03 | 0.12 | <0.03 | <0.03 | <0.03 | 0.50 | 0.06 (≈ 0.102 µM)
C[C@@H](n1ncn(-c2ccc(N3CCN(c4ccc(F)cc4)CC3)cc2)c1=O)[C@@](O)(Cn1cncn1)c1ccc(F)cc1F [Compound 12, 2-{[1R2S/1S2R]-2-(2,4-Difluorophenyl)-2-hydroxy-1-methyl-3-(1H-1,2,4-triazol-1-yl)propyl}-4-{4-[4-(4-fluorophenyl)-1-piperazinyl]phenyl}-3-(2H,4H)-1,2,4-triazolone] | 4.00 | >16 | 8.00 | 0.06 | 4.00 | <0.03 | 8.00 | <0.03 | 0.12 | 0.25 | >16 | < 0.03

Reference: patent publication US6670363B1, “Azole compounds as therapeutic agents for fungal infections” (Ranbaxy Laboratories Limited, priority 2000, dated 2003)
